Test system: NLRP3
Assay: IL-1β secretion assay in PMA-differentiated, LPS/nigericin-stimulated THP-1 cells (384-well, ELISA read-out)
Format: cell-based, human
Details: Homo sapiens, THP-1, Table 4; IL-1β secretion, LPS/nigericin-stimulated THP-1 cells; read-out: IC50
Outline: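 Secreted IL-1β quantified by capture ELISA from supernatants of PMA-differentiated THP-1 cells (30K per well). Sequence: LPS 25 ng/mL priming 2 h, compound 1 h, nigericin 2 h; dose-responses normalized between high (LPS plus 5 μM nigericin) and low (LPS alone) controls.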

Row | SMILES | IC50
1 | Cc1cnc(NC(=O)CN2CC3(CC3)c3cc(Br)ccc3C2=O)c(F)c1 [Example 396, 2-(6-bromo-1-oxospiro[3H-isoquinoline-4,1′-cyclopropane]-2-yl)-N-(3-fluoro-5-methylpyridin-2-yl)acetamide] | 1600 nM
2 | Cc1cc(C#N)cnc1NC(=O)CN1CC2(CC2)c2cc(Br)ccc2C1=O [Example 397, 2-(6-bromo-1-oxospiro[3H-isoquinoline-4,1′-cyclopropane]-2-yl)-N-(5-cyano-3-methylpyridin-2-yl)acetamide] | 2000 nM
3 | O=C(CN1CC2(CC2)c2cc(Br)ccc2C1=O)Nc1ccc2cnsc2c1 [Example 398, N-(1,2-benzothiazol-6-yl)-2-(6-bromo-1-oxospiro[3H-isoquinoline-4,1′-cyclopropane]-2-yl)acetamide] | 1910 nM
4 | Cc1cnc2ccc(NC(=O)CN3CC4(CC4)c4cc(Br)ccc4C3=O)nn12 [Example 399, 2-(6-bromo-1-oxospiro[3H-isoquinoline-4,1′-cyclopropane]-2-yl)-N-(3-methylimidazo[1,2-b]pyridazin-6-yl)acetamide] | 1350 nM
5 | Cc1cn2nc(NC(=O)CN3CC4(CC4)c4cc(Br)ccc4C3=O)ccc2n1 [Example 400, 2-(6-bromo-1-oxospiro[3H-isoquinoline-4,1′-cyclopropane]-2-yl)-N-(2-methylimidazo[1,2-b]pyridazin-6-yl)acetamide] | 612 nM
6 | COc1ncnc(NC(=O)CN2CC3(CC3)c3cc(Br)ccc3C2=O)c1F [Example 401, 2-(6-bromo-1-oxospiro[3H-isoquinoline-4,1′-cyclopropane]-2-yl)-N-(5-fluoro-6-methoxypyrimidin-4-yl)acetamide] | 1890 nM
7 | Cc1c(NC(=O)CN2CC3(CC3)c3cc(Br)ccc3C2=O)nn2ccccc12 [Example 402, 2-(6-bromo-1-oxospiro[3H-isoquinoline-4,1′-cyclopropane]-2-yl)-N-(3-methylpyrazolo[1,5-a]pyridin-2-yl)acetamide] | 9270 nM
8 | O=C(CN1CC2(CC2)c2cc(Br)ccc2C1=O)Nc1nn2ccccc2c1F [Example 403, 2-(6-bromo-1-oxospiro[3H-isoquinoline-4,1′-cyclopropane]-2-yl)-N-(3-fluoropyrazolo[1,5-a]pyridin-2-yl)acetamide] | 2320 nM
9 | O=C(CN1CC2(CC2)c2cc([C@@]3(F)C[C@H]3C(F)(F)F)ccc2C1=O)Nc1ncc(F)cn1 [Example 404, N-(5-fluoropyrimidin-2-yl)-2-[6-[(1r,2r)-1-fluoro-2-(trifluoromethyl)cyclopropyl]-1-oxospiro[3H-isoquinoline-4,1′-cyclopropane]-2-yl]acetamide] | 3890 nM
10 | CC1(C)COC(NC(=O)CN2CC3(CC3)c3cc(Br)ccc3C2=O)=N1 [Example 405, 2-(6-bromo-1-oxospiro[3H-isoquinoline-4,1′-cyclopropane]-2-yl)-N-(4,4-dimethyl-5H-1,3-oxazol-2-yl)acetamide] | 18000 nM
11 | O=C(CN1CC2(CC2)c2cc(Br)ccc2C1=O)NC1CCNC1=O (centres unmarked) [Example 406, 2-(6-bromo-1-oxospiro[3H-isoquinoline-4,1′-cyclopropane]-2-yl)-N-(2-oxopyrrolidin-3-yl)acetamide] | 16100 nM
12 | COc1cccnc1NC(=O)CN1CC2(CC2)c2cc(Br)ccc2C1=O [Example 407, 2-(6-bromo-1-oxospiro[3H-isoquinoline-4,1′-cyclopropane]-2-yl)-N-(3-methoxypyridin-2-yl)acetamide] | 4280 nM
13 | Cn1ncc2cnc(NC(=O)CN3CC4(CC4)c4cc(Br)ccc4C3=O)nc21 [Example 408, 2-(6-bromo-1-oxospiro[3H-isoquinoline-4,1′-cyclopropane]-2-yl)-N-(1-methylpyrazolo[3,4-d]pyrimidin-6-yl)acetamide] | 827 nM
14 | O=C(CN1CC2(CC2)c2cc(Br)ccc2C1=O)Nc1ncc2ncsc2n1 [Example 409, 2-(6-bromo-1-oxospiro[3H-isoquinoline-4,1′-cyclopropane]-2-yl)-N-([1,3]thiazolo[5,4-d]pyrimidin-5-yl)acetamide] | 1370 nM
15 | O=C(CN1CC2(CC2)c2cc(Br)ccc2C1=O)Nc1ccnnc1 [Example 410, 2-(6-bromo-1-oxospiro[3H-isoquinoline-4,1′-cyclopropane]-2-yl)-N-pyridazin-4-ylacetamide] | 1520 nM
16 | O=C(CN1CC2(CC2)c2cc(Br)ccc2C1=O)Nc1cnccn1 [Example 411, 2-(6-bromo-1-oxospiro[3H-isoquinoline-4,1′-cyclopropane]-2-yl)-N-pyrazin-2-ylacetamide] | 1340 nM
17 | Cc1nc(NC(=O)CN2CC3(CC3)c3cc(Br)ccc3C2=O)nn1-c1ccccc1 [Example 412, 2-(6-bromo-1-oxospiro[3H-isoquinoline-4,1′-cyclopropane]-2-yl)-N-(5-methyl-1-phenyl-1,2,4-triazol-3-yl)acetamide] | 3170 nM
18 | O=C(CN1CC2(CC2)c2cc(Br)ccc2C1=O)Nc1ncn(-c2ccccc2)n1 [Example 413, 2-(6-bromo-1-oxospiro[3H-isoquinoline-4,1′-cyclopropane]-2-yl)-N-(1-phenyl-1,2,4-triazol-3-yl)acetamide] | 2020 nM
19 | N#Cc1ccc(NC(=O)CN2CC3(CC3)c3cc(Br)ccc3C2=O)cn1 [Example 414, 2-(6-bromo-1-oxospiro[3H-isoquinoline-4,1′-cyclopropane]-2-yl)-N-(6-cyanopyridin-3-yl)acetamide] | 1260 nM
20 | Cn1ccc(N2CCC(NC(=O)CN3CC4(CC4)c4cc(Br)ccc4C3=O)C2)n1 (centres unmarked) [Example 415, 2-(6-bromo-1-oxospiro[3H-isoquinoline-4,1′-cyclopropane]-2-yl)-N-[1-(1-methylpyrazol-3-yl)pyrrolidin-3-yl]acetamide] | 21000 nM
21 | Cn1cc(N2CCC(NC(=O)CN3CC4(CC4)c4cc(Br)ccc4C3=O)C2)cn1 (centres unmarked) [Example 416, 2-(6-bromo-1-oxospiro[3H-isoquinoline-4,1′-cyclopropane]-2-yl)-N-[1-(1-methylpyrazol-4-yl)pyrrolidin-3-yl]acetamide] | 20800 nM
22 | Cn1cc(N2CCCC(NC(=O)CN3CC4(CC4)c4cc(Br)ccc4C3=O)C2)cn1 (centres unmarked) [Example 417, 2-(6-bromo-1-oxospiro[3H-isoquinoline-4,1′-cyclopropane]-2-yl)-N-[1-(1-methylpyrazol-4-yl)piperidin-3-yl]acetamide] | 11700 nM
23 | COc1ccc(NC(=O)CN2CC3(CC3)c3cc(Br)ccc3C2=O)cn1 [Example 418, 2-(6-bromo-1-oxospiro[3H-isoquinoline-4,1′-cyclopropane]-2-yl)-N-(6-methoxypyridin-3-yl)acetamide] | 3480 nM
24 | O=C(CN1CC2(CC2)c2cc(Br)ccc2C1=O)Nc1ncc(C(F)F)cc1F [Example 419, 2-(6-bromo-1-oxospiro[3H-isoquinoline-4,1′-cyclopropane]-2-yl)-N-[5-(difluoromethyl)-3-fluoropyridin-2-yl]acetamide] | 769 nM
25 | O=C(CN1CC2(CC2)c2cc(Br)ccc2C1=O)Nc1ccc(OC(F)F)nc1 [Example 420, 2-(6-bromo-1-oxospiro[3H-isoquinoline-4,1′-cyclopropane]-2-yl)-N-[6-(difluoromethoxy)pyridin-3-yl]acetamide] | 3800 nM
26 | CC(C)n1cnc(NC(=O)CN2CC3(CC3)c3cc(Br)ccc3C2=O)n1 [Example 421, 2-(6-bromo-1-oxospiro[3H-isoquinoline-4,1′-cyclopropane]-2-yl)-N-(1-propan-2-yl-1,2,4-triazol-3-yl)acetamide] | 2730 nM

Source: patent US20230416205A1, “COMPOUNDS, COMPOSITIONS, AND METHODS” (Denali Therapeutics Inc, priority 2020, published 2023)
